This is an account of results in ChEMBL document CHEMBL1201862, “PubChem BioAssay data set” (2004).

Test in all cases: NCI anticancer screen, dose series, 48 h
Assay [1] deals with A498.
The subject of assay [2] is CCRF-CEM.
Assay [3] deals with DU-145.
For assay [4], the system named is HCT-116.
Assay [5] deals with HOP-62.
The test system of assay [6] is LOX IMVI.
In assay [7] the test system is M14.
Assay [8] has as its system MOLT-4.
The subject of assay [9] is Malme-3M.
In assay [10] the test system is NCI-H226.
For assay [11], the system named is NCI-H460.
In assay [12] the test system is OVCAR-8.
In assay [13] the test system is PC-3.
For assay [14], the system named is SK-MEL-5.
The test system of assay [15] is SN12C.
For assay [16], the system named is SNB-19.
The subject of assay [17] is TK-10.
In assay [18] the test system is U-251.
Assay [19] deals with UACC-257.
Assay [20] relates to OVCAR-3.

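Step 1: Grow cells in 96-well plates. Step 2: Expose to compound for 48 hours at 5 concentrations. Step 3: Interpolate endpoints linearly; if unreached, use highest concentration. GI50 is the concentration that inhibits growth by half.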 The source made the active and inactive calls. Cut-off read from the data, not from the text of the source: active = GI50 up to about 1.1 µM and inactive = higher. Bounds are passed on as bounds.

`CCN(CC)CCn1nc(N)c2nc3cc(Cl)ccc3nc21`: the GI50 is > 100 µM (inactive) in assay [1]; > 10 µM (inactive) in assay [2]; > 100 µM (inactive) in [3]; 48.4 µM (inactive) in [4]; > 100 µM (inactive) in assay [5]; 51.2 µM (inactive) in [6]. In addition, the GI50 in [7] was 37.8 µM (inactive); in assay [8] it was 33.4 µM (inactive); in [9], 61.7 µM (inactive); in assay [10], 70.1 µM (inactive); in assay [11], 34.3 µM (inactive); in [12] it was 42.4 µM (inactive). For the same compound, the GI50 is 58.1 µM (inactive) in [13]; 26.1 µM (inactive) in assay [14]; 45.1 µM (inactive) in [15]; 53.5 µM (inactive) in [16]; > 100 µM (inactive) in [17]; > 100 µM (inactive) in [18]. Also, the GI50 in assay [19] was 37.5 µM (inactive).

As for `CCOC(=O)C1C(c2ccccc2)C2(C#N)C(=N)OC1(C)C2(C#N)C#N` (stereo not drawn), the GI50 in assay [1] was 32.7 µM (inactive); in [2] it was 23.5 µM (inactive); in assay [3] it was 30.6 µM (inactive); in assay [4], 16.3 µM (inactive); in [6], 16 µM (inactive); in assay [7], 40.6 µM (inactive). Further, the GI50 in assay [8] was 21.1 µM (inactive); in assay [9] it was 20.5 µM (inactive); in assay [10], 24.3 µM (inactive); in assay [12], 24.5 µM (inactive); in assay [13] it was 25.6 µM (inactive); in assay [14] it was 10.5 µM (inactive). Further, the GI50 in assay [15] was > 10 µM (inactive); in assay [16], 40.6 µM (inactive); in assay [17], 26.2 µM (inactive); in assay [18] it was 28.7 µM (inactive); in assay [19], 20.5 µM (inactive).

Regarding `CN(C)C1(N(C)C)Oc2c(c(=O)n(C)c(=O)n2C)C(c2ccc(Br)cc2)C1(F)F` (stereo not drawn), the GI50 in assay [1], in assay [2], in assay [3], in assay [4], in [5] and in assay [6] was > 100 µM (inactive) each time. Moreover, the GI50 in assay [7], in [8], in assay [10], in assay [11], in assay [20] and in [13] was > 100 µM (inactive) in each case. Moreover, the GI50 in assay [14], in assay [16], in assay [17], in [18] and in assay [19] was > 100 µM (inactive) throughout.

As for `Cc1ccc(/C=N\NC(=O)c2ccncc2)s1`, the GI50 in assay [1], in assay [2], in assay [3], in [4], in assay [5] and in [7] was > 100 µM (inactive) in each case. The GI50 in [8], in assay [9], in assay [10], in [11], in assay [20] and in assay [12] was > 100 µM (inactive) throughout. In addition, the GI50 in [13], in assay [14], in assay [15], in assay [16], in [17] and in assay [18] was > 100 µM (inactive) each time. The GI50 in assay [19] was > 100 µM (inactive).

On to `CC1OC(n2cc(F)c(=O)[nH]c2=O)C(O[Si](C)(C)C(C)(C)C)C1O[Si](C)(C)C(C)(C)C` (stereo not drawn), for which the GI50 in assay [1] is 14.2 µM (inactive); in assay [2], 16.6 µM (inactive); in assay [3], 13.6 µM (inactive); in assay [4], 13.9 µM (inactive); in assay [5], 21.5 µM (inactive); in assay [6], 16.2 µM (inactive). In addition, the GI50 in assay [7] was 20.2 µM (inactive); in [8], 13.2 µM (inactive); in assay [9], 14.9 µM (inactive); in [10], 16.2 µM (inactive); in [20], 15 µM (inactive); in [12], 14.7 µM (inactive). For the same compound, the GI50 is 11 µM (inactive) in [13]; 14.9 µM (inactive) in [14]; 12.4 µM (inactive) in [15]; 14.7 µM (inactive) in [16]; 10.7 µM (inactive) in [17]; 13.9 µM (inactive) in [18]. The GI50 in assay [19] was 17.7 µM (inactive).

Regarding `Cc1cc(C#N)c[n+](C)c1`, the GI50 in [1], in assay [2], in assay [3], in [4], in [5] and in [7] was > 100 µM (inactive) in each case. Besides, the GI50 in [8], in assay [9], in assay [10], in assay [11], in [20] and in assay [12] was > 100 µM (inactive) in each case. Also, the GI50 in [13], in [14], in [15], in assay [16], in assay [17] and in assay [18] was > 100 µM (inactive) each time. Besides, in assay [19], the GI50 is > 100 µM (inactive).

Consider `C1=C[C@]2(CCC13OCCO3)COc1ccccc12`, for which the GI50 was > 100 µM (inactive) in [1]; 33.3 µM (inactive) in [2]; 32.3 µM (inactive) in [3]; 37.1 µM (inactive) in assay [4]; 41.2 µM (inactive) in assay [5]; 21.5 µM (inactive) in assay [6]. The GI50 in [7] was 26.6 µM (inactive); in [8] it was 20.2 µM (inactive); in assay [10], 31.9 µM (inactive); in assay [11], 31.7 µM (inactive); in assay [20] it was 36.1 µM (inactive); in [12], 32.4 µM (inactive). Moreover, the GI50 is 35.8 µM (inactive) in [13]; 52 µM (inactive) in [14]; 74.8 µM (inactive) in assay [15]; 38 µM (inactive) in assay [16]; 49.1 µM (inactive) in [17]; 48.8 µM (inactive) in assay [18]. Also, the GI50 in assay [19] is 43.1 µM (inactive).

As for `CC1=NN=C(N)N/C1=C\C(Sc1ccc(Cl)cc1)c1ccc(Cl)cc1Cl` (stereo not drawn), the GI50 in assay [1] was 19.2 µM (inactive); in assay [2], 2.33 µM (inactive); in assay [3], 19.3 µM (inactive); in assay [4] it was 8.02 µM (inactive); in assay [5], 23.8 µM (inactive); in [6], 14.3 µM (inactive). Besides, the GI50 in [7] is 13.6 µM (inactive); in [8], 7.29 µM (inactive); in assay [9], 13.4 µM (inactive); in assay [10] it was 15.1 µM (inactive); in assay [11], 8.77 µM (inactive); in assay [12], 13.5 µM (inactive). The GI50 is 11.6 µM (inactive) in assay [13]; 14.8 µM (inactive) in [14]; 24.8 µM (inactive) in [15]; 12.4 µM (inactive) in assay [16]; 17.5 µM (inactive) in [17]; 14.2 µM (inactive) in [18]. In [19], the GI50 was 16.8 µM (inactive).

Turning to `O=[N+]([O-])c1ccc2nc3ccccc3cc2c1`, the GI50 in [1] was 1.5 µM (inactive); in assay [3], 2.82 µM (inactive); in assay [4] it was 1.65 µM (inactive); in [5] it was 2.26 µM (inactive); in [6], 2.04 µM (inactive); in assay [7] it was 3.33 µM (inactive). For the same compound, the GI50 is < 0.01 µM (active) in [8]; 2.9 µM (inactive) in assay [9]; 2.45 µM (inactive) in assay [10]; 3.03 µM (inactive) in assay [11]; 0.342 µM (active) in assay [20]; 1.26 µM (inactive) in assay [12]. For the same compound, the GI50 in [13] was 1.95 µM (inactive); in assay [14] it was 3.1 µM (inactive); in assay [15], 1.96 µM (inactive); in assay [16], 2.99 µM (inactive); in assay [17], 1.64 µM (inactive); in [18], 2.69 µM (inactive). The GI50 in assay [19] is 1.34 µM (inactive).

Consider `C[C@@]12C[C@@H](c3ccccc3O1)N1CCSC1=N2`, for which the GI50 in assay [1], in [3], in [4], in assay [5], in assay [6] and in [7] was > 100 µM (inactive) each time. Besides, the GI50 is 75.5 µM (inactive) in assay [8]; > 100 µM (inactive) in assay [9]; > 100 µM (inactive) in assay [10]; > 100 µM (inactive) in assay [11]; > 100 µM (inactive) in assay [20]; > 100 µM (inactive) in assay [12]. Also, the GI50 in assay [13], in [14], in assay [15], in [16], in assay [17] and in assay [18] was > 100 µM (inactive) throughout. The GI50 in assay [19] was > 100 µM (inactive).

`CC(C)C1=CC23CCC4C(C)(C(=O)O)CCCC4(C)C2CC1C1C(=O)N(c2cccc(N4C(=O)C5C6CC7C8(C)CCCC(C)(C(=O)O)C8CCC7(C=C6C(C)C)C5C4=O)c2)C(=O)C13` (stereo not drawn): the GI50 in assay [1] was 13.4 µM (inactive); in [2], 6.31 µM (inactive); in assay [3] it was 10.8 µM (inactive); in assay [4], 9.57 µM (inactive); in [5], 12 µM (inactive); in assay [7], 11.6 µM (inactive). For the same compound, the GI50 in assay [8] is 11.1 µM (inactive); in assay [9], 17 µM (inactive); in assay [10], 16.6 µM (inactive); in assay [20], 13.1 µM (inactive); in assay [12], 8.61 µM (inactive); in assay [13] it was 4.66 µM (inactive). For the same compound, the GI50 in [14] was 15.3 µM (inactive); in assay [15] it was 13.3 µM (inactive); in [16] it was 3.02 µM (inactive); in [17], 15.9 µM (inactive); in assay [18], 3.24 µM (inactive).
